Each structure is given as a SMILES string. Values after ≈ are worked out from the molar mass of the structure shown. “Also recorded” adds a separate entry of the source. Like-named read-outs stand apart in the source and are kept apart here.

Data on seven molecules can be found in publication PMC3933301 (Journal of medicinal chemistry, 2013).

For data set [1], the system named is Mtb. Conditions: standard acute infection model, immune incompetent GKO mice; cited from earlier work.
Data set [2] deals with Mtb H37Rv. Conditions: early leads of previous study, Figure 1; cited from earlier work.
The next data set concerns non-replicating Mtb. Conditions: grown under low oxygen conditions; cited from earlier work.
In data set [3] the test system is Mtb. Conditions: cited from earlier work.
In data set [4] the test system is Mtb H37Rv. Nature of the data set: Microplate Alamar Blue Assay. In kind it is cell-based, Mycobacterium tuberculosis.
Data set [5] deals with T1, Mtb FtsZ (Mycobacterium tuberculosis, UniProt P9WN95). In kind it is biochemical. Conditions: for TEM: effect on GTP-initiated FtsZ polymerization: FtsZ 5 µM, GTP 25 µM.
T1 sequence (P9WN95 whole entry): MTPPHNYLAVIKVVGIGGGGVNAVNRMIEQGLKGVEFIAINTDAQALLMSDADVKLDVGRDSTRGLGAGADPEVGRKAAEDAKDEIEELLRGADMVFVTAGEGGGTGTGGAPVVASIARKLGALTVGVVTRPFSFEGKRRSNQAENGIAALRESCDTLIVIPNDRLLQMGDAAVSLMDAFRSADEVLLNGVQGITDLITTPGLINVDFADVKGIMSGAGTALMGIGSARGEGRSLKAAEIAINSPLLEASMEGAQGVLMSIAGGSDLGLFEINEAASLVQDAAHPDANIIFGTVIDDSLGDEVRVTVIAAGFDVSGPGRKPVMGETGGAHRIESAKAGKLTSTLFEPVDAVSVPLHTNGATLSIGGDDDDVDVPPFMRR
Data set [6] concerns the target T1, Mtb FtsZ. Nature of the data set: Mtb-FtsZ polymerization inhibitory assay. In kind it is biochemical. Conditions: FtsZ 15 µM, GTP 50 µM, 25 °C.
Another data set is described as follows: Cytotoxicity assay. In kind it is cell-based. Conditions: Cercopithecus aethiops (African green monkey).

With `CCCCOC(=O)Nc1cc2nc(C3CCCCC3)[nH]c2cc1N(CC)CC` [Compound 1], the Efficacy in vivo entry in the data set with Mtb [1] was “good efficacy”. For the same molecule, the “MIC of early lead compounds” value in the data set with Mtb H37Rv [2] is recorded as 0.63 µg/mL. Besides, in the data set with non-replicating Mtb, the “Activity against non-replicating Mtb” value is given as “active”. Besides, the Bactericidal activity result in the data set with Mtb [3] is listed as “bactericidal”. Moreover, the MIC with Mtb H37Rv [4] (Mycobacterium tuberculosis, H37RV, read-out: Mtb H37Rv MIC) is 0.63 µg/mL (≈ 1.63 µM).
`CCCCOC(=O)Nc1cc2nc(C3CCCCC3)[nH]c2cc1N1CCCC1` [Compound 2]: the “Activity against non-replicating Mtb” value with non-replicating Mtb is listed as “active”. In the data set on Mtb [3], the Bactericidal activity entry was “bactericidal”.
As to `CCCCOC(=O)Nc1cc2nc(C3CCCCC3)[nH]c2cc1N(C)C` [Compound 5f, 5-Butyloxycarbonylamino-2-cyclohexyl-6-N,N-dimethylamino-1H-benzo[d]imidazole], the “TEM: effect on preformed FtsZ polymers” value on Mtb FtsZ [5] (5f 40 µM or 80 µM added after polymerization with GTP 25 µM) was “capable of disrupting the formed FtsZ polymers and aggregates; also recorded: effectively disassembled”. Also, the “TEM: effect on GTP-initiated FtsZ polymerization” value was “reduction in the density and population of FtsZ polymers, protofilaments and aggregates” on Mtb FtsZ [5] (5f 40 µM); “more apparent” on Mtb FtsZ [5] (5f 80 µM). In addition, the “Inhibition of Mtb FtsZ polymerization (light scattering)” value (from here on “Inhibition of Mtb FtsZ polymerization”) at Mtb FtsZ [6] is reported as “inhibit the assembly of Mtb FtsZ in a dose dependent manner; also recorded: effective dose-dependent inhibition”. Further, in the data set on Mtb H37Rv [4], the “Potency relative to 1 (Mtb H37Rv MIC)” value came out at 11 times.
As to `CCN(CC)c1cc2[nH]c(C3CCCCC3)nc2cc1NC(=O)OCC(F)(F)F` [Compound 5n, 2-Cyclohexyl-6-N,N-diethylamino-5-trifluoroethoxycarbonylamino-1H-benzo[d]imidazole], in the data set “Cytotoxicity assay”, the IC50 is more than 100 µg/mL.
`O=C(Nc1cc2nc(C3CCCCC3)[nH]c2cc1N1CCCC1)OCC(F)(F)F` [Compound 5o, 2-Cyclohexyl-5-trifluoroethoxycarbonylamino-6-prrolidinyl-1H-benzo[d]imidazole] returned an IC50 in “Cytotoxicity assay” of more than 100 µg/mL.
As to `CN(C)c1cc2[nH]c(C3CCCCC3)nc2cc1NC(=O)OCC(F)(F)F` [Compound 5p, 2-Cyclohexyl-5-trifluoroethoxycarbonylamino-6-N,N-dimethylamino-1H-benzo[d]imidazole], the half-inhibitory concentration (IC50) in “Cytotoxicity assay” is more than 100 µg/mL. Besides, the “Inhibition of Mtb FtsZ polymerization” value on Mtb FtsZ [6] is “inhibit the assembly of Mtb FtsZ in a dose dependent manner; also recorded: effective dose-dependent inhibition”.
For `CCc1ccc(C(=O)Nc2cc3nc(C4CCCCC4)[nH]c3cc2N(C)C)cc1` [Compound 7c-6, 2-Cyclohexyl-5-(4-ethylbenzamido)-6-N,N-dimethylamino-1H-benzo[d]imidazole], the “Inhibition of Mtb FtsZ polymerization” value on Mtb FtsZ [6] is “inhibit the assembly of Mtb FtsZ in a dose dependent manner; also recorded: effective dose-dependent inhibition”.

For orientation: MIC means the lowest concentration that inhibits growth of the organism. The term IC50 denotes the concentration needed to halve the response being measured.
